The source of these data is patent US10883087B2, “Uricase sequences and methods of treatment” (MedImmune, LLC, priority 2015, dated 2021).

Experiment in all cases: Substrate depletion assay (UA)
Data set [1] relates to Krystexxa (pegloticase), PEGylated chimeric pig/baboon uricase. Type of data set: biochemical, pig and baboon (chimera). Conditions: PB, pH 7.4, typically 30° C.; UA 23.8-400 μM; 292 nm. The method, then: Five uricases (SEQ ID NOs: 27, 28, 29, 32, and 34) were evaluated for neutral pH solubility characteristics and activity in terms of product formation (H2O2) at pH 9.0 and 7.4. In the product formation assay, allantoin formation is proportional to H2O2 formation, which is linked to colorimetric horseradish peroxidase-catalyzed, colorimetric reaction. The appearance of hydrogen peroxide can be measured by an increase in absorbance at 540 nm. Product formation assays were proportional to substrate depletion assays in terms of uricase activity. […] The substrate depletion assays were much better for assessing kinetic parameters like Vmax and Km.
Substrate depletion (UA) is another common method for assessing uricase activity. In the substrate depletion assay, uricase, UA, and phosphate buffer were incubated for 1 hour at the stated temperature (typically 30° C.). Uricase was then diluted to 1 μg/mL and combined with a curve of UA (400 μM diluted down 1:1.6 to 23.8 μM) in 0.1M phosphate buffer (PB), pH 7.4. In some assays 1 mM DTT was added to the assay. The Molecular Devices reader temperature was set to the 30° C. Absorbance measurements at 292 nm were captured every 20 seconds for a period of 10 minutes. The rate of UA degradation was calculated by SoftMax Pro software. Vmax and Km were calculated for these uricases (see Table 5 below). […]

Data set [2] has as its target T1, Arthrobacter globiformis uricase, wt, SEQ ID NO: 27 (amino terminal His tag) (Arthrobacter globiformis, UniProt D0VWQ1).
T1 sequence (D0VWQ1 1-302): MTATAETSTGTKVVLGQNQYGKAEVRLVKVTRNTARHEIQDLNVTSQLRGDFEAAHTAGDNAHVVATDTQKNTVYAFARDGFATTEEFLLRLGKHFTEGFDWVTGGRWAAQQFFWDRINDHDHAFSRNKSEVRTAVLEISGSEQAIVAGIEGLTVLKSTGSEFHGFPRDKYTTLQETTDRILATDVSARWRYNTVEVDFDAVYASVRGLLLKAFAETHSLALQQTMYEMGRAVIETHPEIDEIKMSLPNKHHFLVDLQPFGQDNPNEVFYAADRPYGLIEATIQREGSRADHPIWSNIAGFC
Type of data set: biochemical. The method, then: (§1) An initial screening paradigm was used to identify candidates for further optimization. The 8 uricase sequences described in Example 1 were cloned with an amino terminal His tag and expressed in E. coli. Each uricase construct was evaluated for expression level and in particular, soluble expression. Uricase expressing E. coli were lysed and soluble material was separated from insoluble (pellet) material. The lysates were separated by SDS-PAGE and the proteins were visualized by Coomassie blue staining. […] The pig-baboon chimera appears to express almost entirely in the pellet (P) (insoluble) fraction (FIG. 1, Lane 9). Cytosolic soluble (S) expression was considered a favorable property. […] Protein yield was determined by measuring the absorbance at 280 nm. […]
(§2) Five uricases (SEQ ID NOs: 27, 28, 29, 32, and 34) were evaluated for neutral pH solubility characteristics and activity in terms of product formation (H2O2) at pH 9.0 and 7.4. […] The appearance of hydrogen peroxide can be measured by an increase in absorbance at 540 nm. […]
(§3) Substrate depletion (UA) is another common method for assessing uricase activity. […] The Molecular Devices reader temperature was set to the 30° C. Absorbance measurements at 292 nm were captured every 20 seconds for a period of 10 minutes. The rate of UA degradation was calculated by SoftMax Pro software. Vmax and Km were calculated for these uricases (see Table 5 below). […]

The target of data set [3] is Deinococcus geothermalis uricase, SEQ ID NO: 28 (amino terminal His tag) (Deinococcus geothermalis, UniProt Q1J399). Type of data set: biochemical.
Method: (§4) Substrate depletion (UA) is another common method for assessing uricase activity. In the substrate depletion assay, uricase, UA, and phosphate buffer were incubated for 1 hour at the stated temperature (typically 30° C.). […] In some assays 1 mM DTT was added to the assay. The Molecular Devices reader temperature was set to the 30° C. Absorbance measurements at 292 nm were captured every 20 seconds for a period of 10 minutes. The rate of UA degradation was calculated by SoftMax Pro software. Vmax and Km were calculated for these uricases (see Table 5 below).
For data set [4], the system named is Consensus uricase, SEQ ID NO: 34 (amino terminal His tag). Type of data set: biochemical. The following applies: PB, pH 7.4, typically 30° C.; UA 23.8-400 μM; 292 nm.
Text: After this process, the following 7 candidate sequences were chosen for further investigation: Arthrobacter globiformis uricase (SEQ ID NO: 27), Deinococcus geothermalis uricase (SEQ ID NO: 28), Deinococcus radiodurans uricase (SEQ ID NO: 29), Granulicella tundricola uricase (SEQ ID NO: 30), Solibacter usitatus uricase (SEQ ID NO: 31), Terriglobus saanensis uricase (SEQ ID NO: 32) and Kyrpidia tusciae uricase (SEQ ID NO: 33). Additionally, as an 8th sequence, a consensus uricase sequence was also devised from the alignment of many uricase sequences. The consensus sequence is represented by SEQ ID NO: 34.
An initial screening paradigm was used to identify candidates for further optimization. […] Each uricase construct was evaluated for expression level and in particular, soluble expression. […] Protein yield was determined by measuring the absorbance at 280 nm. […]
as §2
Substrate depletion (UA) is another common method for assessing uricase activity. […] The Molecular Devices reader temperature was set to the 30° C. Absorbance measurements at 292 nm were captured every 20 seconds for a period of 10 minutes. […]

For data set [5], the system named is O=c1[nH]c(=O)c2[nH]c(=O)[nH]c2[nH]1. It is filed as biochemical, Deinococcus geothermalis. The following applies: other: PB, pH 7.4, typically 30° C., UA 23.8-400 μM, 292 nm.
Method: as §4
Substrate in data set [6]: O=c1[nH]c(=O)c2[nH]c(=O)[nH]c2[nH]1
It is filed as biochemical, Terriglobus saanensis. Conditions: other: PB, pH 7.4, typically 30° C., UA 23.8-400 μM, 292 nm. On the procedure: as §1, §2, §3

Substrate in data set [7]: O=c1[nH]c(=O)c2[nH]c(=O)[nH]c2[nH]1
Type of data set: biochemical, Arthrobacter globiformis. The method, then:
as §1, §2, §3

Substrate in data set [8]: O=c1[nH]c(=O)c2[nH]c(=O)[nH]c2[nH]1
Type of data set: biochemical, Deinococcus radiodurans. Conditions: other: PB, pH 7.4, typically 30° C., UA 23.8-400 μM, 292 nm. The method, then:
as §1, §2, §3

In general, Km refers to the substrate concentration at which the rate is half of its maximum. Take `O=c1[nH]c(=O)c2[nH]c(=O)[nH]c2[nH]1` [UA, uric acid]: the Km worked out at 116 µM in data set [1] and 31.8 µM in data set [4]. The Vmax in data set [1] was found to be 5.7; in data set [3] (compared with Krystexxa), 10.8. Besides, the “better kcat/Km relative to Krystexxa” value in data set [2] (ratio to Krystexxa) and in data set [3] (ratio to Krystexxa) was roughly 2 fold each time. In addition, the “better Km relative to Krystexxa” value in data set [2] (ratio to Krystexxa (55.7 versus 116.3)) came out at 2 fold. The “improved Vmax relative to Krystexxa” value in data set [3] (ratio to Krystexxa (10.8 versus 5.7)) is given as 2 fold.

Turning to “Deinococcus geothermalis uricase, SEQ ID NO: 28 (amino terminal His tag) (Deinococcus geothermalis DSM 11300)”, in data set [5], the Km is 55.7 µM.

B1: Terriglobus saanensis uricase, SEQ ID NO: 32 (amino terminal His tag) (Terriglobus saanensis SP1PR4) (protein)
chain: MAKLIDSRYGKARVRVMKLDRSQPQHQLLEWTVRVLLEGDFETAHTVGDNSNILPTDTMKNTVYSRAKESKAETPEEFAIELAEFLLGRNPQVHTVEVKIETAMWKRLVVDGKPHGSSFMRGSDELGTVLHHATRETKTMVCGVENMVILKSQNSSFEGYIQDDLTTLKPTADRLFATAMTADWDYTDGGSAFAARREAIREAMLKAFAEHDSKSVQQTLYAMAEAAMAAVPAVNRVHMVMPNKHCLLVDLKHFGQENNNEIFVPTEDPHGYIEATVVRE
Turning to B1, the Km in data set [6] amounted to 76.2 µM.

B2: Arthrobacter globiformis uricase, wt, SEQ ID NO: 27 (amino terminal His tag) (Arthrobacter globiformis) (protein)
chain: MTATAETSTGTKVVLGQNQYGKAEVRLVKVTRNTARHEIQDLNVTSQLRGDFEAAHTAGDNAHVVATDTQKNTVYAFARDGFATTEEFLLRLGKHFTEGFDWVTGGRWAAQQFFWDRINDHDHAFSRNKSEVRTAVLEISGSEQAIVAGIEGLTVLKSTGSEFHGFPRDKYTTLQETTDRILATDVSARWRYNTVEVDFDAVYASVRGLLLKAFAETHSLALQQTMYEMGRAVIETHPEIDEIKMSLPNKHHFLVDLQPFGQDNPNEVFYAADRPYGLIEATIQREGSRADHPIWSNIAGFC
As for B2, the Km in data set [7] (other: PB, pH 7.4, typically 30° C., UA 23.8-400 μM, 292 nm, pH 7.4) was 110 µM; in data set [7] (other: restated in text, compared with Krystexxa, 30.0 °C) it was 55.7 µM.

B3: Deinococcus radiodurans uricase, SEQ ID NO: 29 (amino terminal His tag) (Deinococcus radiodurans R1 = ATCC 13939 = DSM 20539) (protein)
chain: MMTGTQQPGTQPKVKVRLGENNYGKAEVQLMKIKRGTPRHELREAKVRVAMYGDFGAAHSEGDNTDLVATDTVRNTVYGLAKEGFESSIEEFGKELLTHFVKVGPRVTGGFAEFTEHLWERVQTPAQPQGHDHAFVRQMPKRTARVETQDGRRFTVTSGIEELYVLKTTESGWENYLLDERFTTLPETHDRVMATFVTAKWEYAVESCDYDAVWERVYRQIQHTFTDHYSPSLQRTLYLMGEAVLSVCPEISRIWFQMPNKHHLVYNLGRFGLENNNEILHVDPEPYGLMEAWVERAE
As to B3, the Michaelis constant (Km) in data set [8] is 83.1 µM.
